# According to US11547737B2, “Compositions and methods for treating virus infection” (priority 2020, dated 2023):
# Read-outs that look alike come from different tables or passages of the source.
# Key:
# [1] = physchem
# [2] = Solid form stability of CHP forms by XRPD (storage, drying, DVS)
# [3] = in vitro; settings: African green monkey (Cercopithecus aethiops)
# [4] = test system: SARS-CoV-2; assay: microbe, parasite or virus in culture; assay type: cell-based; settings: for EC50: read-out: Effective drug concentration (EC50); for antiviral activity: used alone
# [5] = test system: Zn influx into the cell; assay: Zn penetration into the cells; assay type: cell-based
# [6] = muscle tissues and intestinal segments; cited from earlier work
# [7] = test system: RTCs of equine arteritis virus (EAV); settings: in vitro; cited from earlier work
# [8] = test system: Vero cells
# [9] = test system: RTCs of SARS-CoV; settings: in vitro; cited from earlier work
# [10] = test system: COVID-19; settings: hospitalized COVID-19 patients, compared to standard of care, interim trial results; cited from earlier work
compound,measurement,setting,value
"O=C1N[C@@H](Cc2cnc[nH]2)C(=O)N2CCC[C@@H]12 [CHP hydrate, cyclo(-His-Pro) hydrate]",pKa,[1],~6.4
same,form by XRPD,[2]; post various temperature DVS (VT-DVS),a mixture of Patterns 1 and 2
same,change in form by XRPD,"[2]; post-DVS, 40% RH",no change in form
same,change in form by XRPD,"[2]; stored 40° C./75% RH, seven days",no change
same,change in form by XRPD,"[2]; stored at 80° C., seven days",converted to Pattern 1
same,change in form by XRPD,"[2]; stored at ambient light, seven days",no change
"CCN(CC)CCCC(C)Nc1ccnc2cc(Cl)ccc12 (stereo not drawn) [Chloroquine, chloroquine]",CC50,[3],> 100 µM
same,EC50,"[4]; Severe acute respiratory syndrome coronavirus 2, Vero",13 µM
same,Zn penetration into the cells,[5],an increase of Zn penetration into the cells
O=C1N[C@@H](Cc2cnc[nH]2)C(=O)N2CCC[C@@H]12 [Pattern 1],form by XRPD,[2]; Pattern 1 post dynamic vapor sorption (DVS),changed to Pattern 2
"O=C1N[C@@H](Cc2cnc[nH]2)C(=O)N2CCC[C@@H]12 [CHP, Cyclo(-His-Pro)]",zinc absorption and uptake,[6],enhanced zinc absorption and uptake
same,Selectivity index (SI) CC50/EC50,[4]; calculated CC50/EC50,≥ 1.6
same,antiviral activity,[4]; at a concentration of 10 μmol or lower,does not show antiviral activity
same,antiviral activity,[4]; at the concentration of 30 mmol,shows an antiviral activity
"[Zn+2] [Zn, zinc]",RNA-synthesizing activity of the RTCs,[7],efficiently inhibits
same,EC50,"[4]; Vero cells, SARS-CoV-2 MOI 0.1, concentration inhibiting virus replication by 50%",480 µM
same,antiviral activity,[4]; at concentrations 200 μmol or lower,does not show any antiviral activity
same,cytotoxicity (cell killing),[8]; at the concentration of 600 μmol,kills the cells
same,CC50,"[8]; read-out: Cytotoxicity (CC50), Vero cells, concentration resulting in 50% cell death",486 µM
same,RNA-synthesizing activity of the RTCs,[9],efficiently inhibits
CCN(CCO)CCCC(C)Nc1ccnc2cc(Cl)ccc12 (stereo not drawn) [hydroxychloroquine],reduction in the mortality,[10],little or no reduction
